Results as given in patent US9029574B2, “Bicyclic compound and use thereof for medical purposes” (Ono Pharmaceutical Co., Ltd., priority 2011, dated 2015).

Legend:
Assay type in all cases: cell-based
mouse FP receptor = target: T1, mouse FP receptor (Mus musculus, UniProt P43117); assay: Measurement of FP agonist activity (intracellular calcium concentration) in FP-CHO cells; settings: for EC50: FP-CHO cells, intracellular calcium concentration, read-out: Agonist activity on various prostanoid receptors: EC50 value (nmol/L) FP
T1 construct: expressed in transfected cells; host or cells: CHO cells (FP-CHO)
Source text: (§1) (1-1) Measurement of Agonist Activity on Various Mouse Prostanoid Receptors
(§2) With using CHO cells (FP-CHO, EP1-CHO and IP-CHO, respectively) in which various mouse prostanoid receptors were forcibly expressed, respectively, agonist activity of test compounds on various prostanoid receptors was studied employing an intracellular calcium concentration regarding FP and EP1, and an intracellular cyclic AMP (hereinafter, abbreviated as cAMP) production amount regarding IP, as an index.
(§3) The test compound was dissolved with dimethyl sulfoxide (DMSO) to prepare a 10 mmol/L solution. Regarding the prepared 10 mmol/L solution, upon use, the 10 mmol/L solution was thawed; step wisely-diluted using DMSO; and diluted with a buffer solution for measurement or a buffer solution for measurement 2, which was subjected to an experiment.
(§4) Cells forcibly expressing various mouse prostanoid receptors were standing-cultured at 37° C. in the presence of 5% CO2 with using an α-MEM medium (Sigma) (for culturing FP-CHO and EP1-CHO) containing inactivated (56° C., 30 minutes) 9.8 vol % dialysed-FBS (Invitrogen) and penicillin-streptomycin-glutamine (GIBCO-BRL), or nucleic acid-containing α-MEM (Sigma) (for culturing IP-CHO) containing inactivated (56° C., 30 minutes) 9.8 vol % dialysed-FBS (Invitrogen) and penicillin-streptomycin glutamine (Invitrogen). Subculturing was performed by the following method.
(§5) After collecting cells into a centrifuging tube, cells were centrifuged at 120 g for 3 minutes at room temperature and the supernatant was removed. Cells were suspended in a suitable amount of a medium, and seeded in a culturing flask.
(§6) (1-2) Measurement of FP and EP1 Agonist Activity (Measurement of Intracellular Calcium Concentration)
(§7) Regarding FP-CHO and EP1-CHO, by the same method as that of subculturing, cells were peeled and suspended. Before two days from measurement, cells were seeded at a density of 1.0×10^4 cells/well into a 96-well UV plate, and standing-cultured at 37° C. in the presence of 5% CO2. […] To each well, 100 μL of a medium containing 5 μmol/L fura 2-AM (DOJINDO), 2.5 mmol/L Probenecid (Sigma), 20 μmol/L indometacin (Sigma) and 10 mmol/L HEPES (Invitrogen) was added, and cells were incubated for about 60 minutes in a CO2 incubator. After completion of the incubation, the medium was removed, and cells were washed with a buffer solution for measurement (Hank's balanced salt solution (Nissui Pharmaceutical Co., Ltd., 9.8 g of the present product was dissolved in 1 L distilled water) containing 0.1 or 1 w/v % bovine serum albumin, 2 μmol/L indometacin, 2.5 mmol/L Probenecid and 10 mmol/L HEPES-NaOH (pH 7.4)) twice. To each well, 120 μL of a buffer solution for measurement was added; and cells were incubated in a CO2 incubator for 30 minutes; and then cells were subjected to an experiment.
(§8) The 96-well UV plate was set in a fluorescent spectral photometer (FDSS-3000, Hamamatsu Photonics K.K.), and an intracellular calcium concentration was measured. To perform a reaction, 30 μL of a buffered solution for measurement containing an agonist at a variety of concentrations was added. Measurement of an intracellular calcium concentration was performed by irradiating cells with excited light of 340 nm and 380 nm alternately, with measuring a fluorescent intensity at 500 nm, and obtaining a fluorescent intensity ratio of 2-wavelength excitation.
(§9) With using measured values obtained from the above method, an EC50 value as an index of agonist activity of the compound of the present invention on mouse FP, mouse EP1 and mouse IP receptors was calculated.

mouse EP1 receptor = target: T2, mouse EP1 receptor (Mus musculus, UniProt P35375); assay: Measurement of EP1 agonist activity (intracellular calcium concentration) in EP1-CHO cells; settings: for EC50: EP1-CHO cells, intracellular calcium concentration, read-out: Agonist activity on various prostanoid receptors: EC50 value (nmol/L) EP1
T2 construct: expressed in transfected cells; host or cells: CHO cells (EP1-CHO)
T2 sequence (P35375 1-405): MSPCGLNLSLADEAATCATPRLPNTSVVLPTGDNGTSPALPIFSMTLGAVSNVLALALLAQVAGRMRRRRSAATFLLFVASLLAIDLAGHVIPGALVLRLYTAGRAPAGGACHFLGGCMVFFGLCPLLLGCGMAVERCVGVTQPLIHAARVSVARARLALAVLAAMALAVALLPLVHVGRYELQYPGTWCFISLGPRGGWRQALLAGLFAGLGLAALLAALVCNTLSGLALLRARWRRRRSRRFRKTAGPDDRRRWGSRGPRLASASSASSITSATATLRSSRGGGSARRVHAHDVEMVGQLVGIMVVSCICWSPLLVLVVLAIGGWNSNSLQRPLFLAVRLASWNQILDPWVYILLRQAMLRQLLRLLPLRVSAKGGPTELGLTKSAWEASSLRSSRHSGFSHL
Source text: as §1, §2, §3, §4, §5, §6, §7, §8, §9

mouse IP receptor = target: T3, mouse IP receptor (Mus musculus, UniProt P43252); assay: Measurement of IP agonist activity (cAMP concentration) in IP-CHO cells; settings: for EC50: IP-CHO cells, intracellular cAMP production amount, read-out: Agonist activity on various prostanoid receptors: EC50 value (nmol/L) IP
T3 construct: expressed in transfected cells; host or cells: CHO cells (IP-CHO)
Source text: as §1, §2, §3, §4, §5
(1-3) Measurement of IP Agonist Activity (Measurement of cAMP Concentration)
Cells were suspended in a suitable amount of a buffer solution for measurement 1 (MEM medium (Invitrogen) containing 0.1 w/v % bovine serum albumin (Sigma) and 2 μmol/L diclofenac (Sigma)), and centrifuged at room temperature for 3 minutes at 500 g, and the supernatant was removed. Cells were suspended in a buffer solution for measurement 2 (MEM medium (Invitrogen) containing 0.1 w/v % bovine serum albumin (Sigma), 2 μmol/L diclofenac (Sigma) and 1 mmol/L 3-isobutyl-1-methylxanthine), and each 25 μL of the suspension was dispensed at a density of 5.0×10^4 cells/well into a 96-well ½ area plate. A buffer solution for measurement 2 (25 μL) containing an agonist at a variety of concentrations was added to perform a reaction at room temperature for 30 minutes. Measurement of a cAMP concentration was performed with using the cAMP HTRF HiRange kit (CIS bio International). According to the two step protocol of the kit manual, each 25 μL of cAMP-D2 and cryptase diluted with a lysis buffer were added, followed by incubation at room temperature for 1 hour. After incubation for 1 hour, time resolved fluorescence at 620 nm and 660 nm in case of beging excited at 340 nm was measured using Analyst GT (Molecular Device), and a ratio (TRF ratio) was obtained, by which a cAMP concentration was calculated from a calibration line.
as §9

T1 sequence (P43117 whole entry): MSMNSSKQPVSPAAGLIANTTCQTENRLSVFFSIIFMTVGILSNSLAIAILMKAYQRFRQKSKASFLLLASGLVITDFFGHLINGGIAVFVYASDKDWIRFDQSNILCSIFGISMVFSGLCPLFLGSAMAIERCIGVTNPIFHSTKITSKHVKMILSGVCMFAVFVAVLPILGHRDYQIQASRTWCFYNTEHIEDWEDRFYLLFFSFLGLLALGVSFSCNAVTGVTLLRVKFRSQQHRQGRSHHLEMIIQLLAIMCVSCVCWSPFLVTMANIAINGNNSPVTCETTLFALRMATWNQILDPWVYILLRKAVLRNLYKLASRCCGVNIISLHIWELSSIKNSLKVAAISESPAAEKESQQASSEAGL
T3 sequence (P43252 whole entry): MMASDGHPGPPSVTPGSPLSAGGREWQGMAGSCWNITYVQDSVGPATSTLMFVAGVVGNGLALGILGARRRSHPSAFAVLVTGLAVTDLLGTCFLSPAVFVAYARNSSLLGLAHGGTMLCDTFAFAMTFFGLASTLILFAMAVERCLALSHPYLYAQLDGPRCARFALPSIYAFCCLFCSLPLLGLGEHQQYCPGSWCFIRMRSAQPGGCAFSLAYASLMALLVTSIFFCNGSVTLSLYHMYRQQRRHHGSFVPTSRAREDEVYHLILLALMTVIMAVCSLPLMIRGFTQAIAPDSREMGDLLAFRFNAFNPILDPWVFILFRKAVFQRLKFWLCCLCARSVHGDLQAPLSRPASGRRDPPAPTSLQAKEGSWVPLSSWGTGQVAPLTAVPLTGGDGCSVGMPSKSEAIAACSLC

| SMILES | EC50 (mouse FP receptor) | EC50 (mouse EP1 receptor) | EC50 (mouse IP receptor) | agonist activity on an FP receptor (mouse FP receptor; in words, summary of Table 1) | agonist activity on an EP1 receptor (mouse EP1 receptor; in words, summary of Table 1) | agonist activity on an IP receptor (mouse IP receptor; in words, summary of Table 1) |
| --- | --- | --- | --- | --- | --- | --- |
| O=C(O)CCC[C@H]1CC[C@@H]2[C@@H](COC/C=C/c3ccccc3)[C@H](O)C[C@@H]2OC1 [Example 110, 4-[(3S,5aR,6S,7R,8aS)-7-hydroxy-6-({[(2E)-3-phenyl-2-propen-1-yl]oxy}methyl)octahydro-2H-cyclopenta[b]oxepin-3-yl]butanoic acid] | 707 nmol/L | > 10000 nmol/L | > 10000 nmol/L | – | – | – |
| O=C(O)CCC[C@H]1CC[C@@H]2[C@@H](C(F)/C=C/COc3ccccc3)[C@H](O)C[C@@H]2OC1 (stereo partly drawn) [Example 123, 4-{(3S,5aR,6R,7R,8aS)-6-[(2E)-1-fluoro-4-phenoxy-2-buten-1-yl]-7-hydroxyoctahydro-2H-cyclopenta[b]oxepin-3-yl}butanoic acid] | 99.2 nmol/L | > 10000 nmol/L | > 10000 nmol/L | – | – | – |
| O=C(O)CCC[C@H]1CC[C@@H]2[C@@H](/C=C/[C@@H](O)COc3ccccc3)[C@H](O)C[C@@H]2O1 [Comparative Compound A, reference compound] | 1.1 nmol/L | 3 nmol/L | 710 nmol/L | has agonist activity | has agonist activity | has agonist activity |
| O=C(O)CCC[C@H]1CC[C@@H]2[C@@H](CCOCCc3ccccc3)[C@H](O)C[C@@H]2OC1 [Example 115, 4-{(3S,5aR,6R,7R,8aS)-7-hydroxy-6-[2-(2-phenylethoxy)ethyl]octahydro-2H-cyclopenta[b]oxepin-3-yl}butanoic acid] | 509 nmol/L | > 10000 nmol/L | > 10000 nmol/L | – | – | – |
| O=C(O)CCC[C@H]1CC[C@@H]2[C@@H](C#CC(O)CCc3ccccc3)[C@H](O)C[C@@H]2OC1 (stereo partly drawn) [Example 119, 4-[(3S,5aR,6S,7R,8aS)-7-hydroxy-6-(3-hydroxy-5-phenyl-1-pentyn-1-yl)octahydro-2H-cyclopenta[b]oxepin-3-yl]butanoic acid] | 50.8 nmol/L | > 10000 nmol/L | > 10000 nmol/L | – | – | – |
| O=C(O)CCC[C@H]1CC[C@@H]2[C@@H](/C=C/C(F)COc3ccccc3)[C@H](O)C[C@@H]2OC1 (stereo partly drawn) [Example 122, 4-{(3S,5aR,6R,7R,8aS)-6-[(1E)-3-fluoro-4-phenoxy-1-buten-1-yl]-7-hydroxyoctahydro-2H-cyclopenta[b]oxepin-3-yl}butanoic acid] | 9.8 nmol/L | 9270 nmol/L | > 10000 nmol/L | – | – | – |
| O=C(O)CCC[C@H]1CC[C@@H]2[C@@H](CC[C@@H](O)COc3cccc(C(F)(F)F)c3)[C@H](O)C[C@@H]2OC1 [Example 108 (13), 4-[(3S,5aR,6R,7R,8aS)-7-hydroxy-6-{(3R)-3-hydroxy-4-[3-(trifluoromethyl)phenoxy]butyl}octahydro-2H-cyclopenta[b]oxepin-3-yl]butanoic acid] | 9.7 nmol/L | > 10000 nmol/L | > 10000 nmol/L | – | – | – |

Continued, values first:

| EC50 (mouse FP receptor) | EC50 (mouse EP1 receptor) | EC50 (mouse IP receptor) | agonist activity on an FP receptor (mouse FP receptor; in words, summary of Table 1) | agonist activity on an EP1 receptor (mouse EP1 receptor; in words, summary of Table 1) | agonist activity on an IP receptor (mouse IP receptor; in words, summary of Table 1) | SMILES |
| --- | --- | --- | --- | --- | --- | --- |
| 21.1 nmol/L | > 10000 nmol/L | > 10000 nmol/L | – | – | – | O=C(O)CCC[C@H]1CC[C@@H]2[C@@H](/C=C/C(O)CCC3CCCC3)[C@H](O)C[C@@H]2OC1 (stereo partly drawn) [Example 132 (7), 4-{(3S,5aR,6R,7R,8aS)-6-[(1E)-5-cyclopentyl-3-hydroxy-1-penten-1-yl]-7-hydroxyoctahydro-2H-cyclopenta[b]oxepin-3-yl}butanoic acid] |
| 114 nmol/L | > 10000 nmol/L | > 10000 nmol/L | – | – | – | O=C(O)CCC[C@H]1CC[C@@H]2[C@@H](/C=C/C(O)COCc3ccccc3)[C@H](O)C[C@@H]2OC1 (stereo partly drawn) [Example 132 (3), 4-{(3S,5aR,6R,7R,8aS)-6-[(1E)-4-(benzyloxy)-3-hydroxy-1-buten-1-yl]-7-hydroxyoctahydro-2H-cyclopenta[b]oxepin-3-yl}butanoic acid] |
| 39.1 nmol/L | > 10000 nmol/L | > 10000 nmol/L | – | – | – | CC(C)=CCCCC(F)(F)/C=C/[C@@H]1[C@H]2CC[C@H](CCCC(=O)O)CO[C@H]2C[C@H]1O [Example 141 (5), 4-{(3S,5aR,6R,7R,8aS)-6-[(1E)-3,3-difluoro-8-methyl-1,7-nonadien-1-yl]-7-hydroxyoctahydro-2H-cyclopenta[b]oxepin-3-yl}butanoic acid] |
| 4.6 nmol/L | > 10000 nmol/L | > 10000 nmol/L | – | – | – | O=C(O)CCC[C@H]1CC[C@@H]2[C@@H](/C=C/C(F)(F)CCc3ccccc3)[C@H](O)C[C@@H]2OC1 [Example 141 (1), 4-{(3S,5aR,6R,7R,8aS)-6-[(1E)-3,3-difluoro-5-phenyl-1-penten-1-yl]-7-hydroxyoctahydro-2H-cyclopenta[b]oxepin-3-yl}butanoic acid] |
| 39 nmol/L | > 10000 nmol/L | > 10000 nmol/L | – | – | – | O=C(O)CCC[C@H]1CC[C@H]2[C@H](CC(F)(F)[C@@H]2/C=C/C(O)CCc2ccccc2)OC1 (stereo partly drawn) [Example 139 (2), 4-{(3S,5aR,6R,8aS)-7,7-difluoro-6-[(1E)-3-hydroxy-5-phenyl-1-penten-1-yl]octahydro-2H-cyclopenta[b]oxepin-3-yl}butanoic acid] |
